How the values were obtained:
[1] = target: T1, BRD4 bromo domain 1 [BRD4(1)] (Homo sapiens, UniProt O60885); experiment: BRD4(1)/acetylated peptide H4 binding assay (TR-FRET); conditions: inhibition of interaction between His6-tagged BRD4(1) (amino acids 67-152) and acetylated histone H4 peptide
T1 construct: N-terminally His6-tagged BRD4(1) (amino acids 67-152); made in house; host or cells: E. coli
How it was run: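 TR-FRET measured displacement of a biotinylated tetra-acetylated H4 peptide from His6-BRD4(1) (aa 67-152, E. coli-expressed, typically 10 nM) in HEPES pH 7.5 buffer. Compounds were tested at 11 concentrations (0.1 nM–20 μM), with 10 min preincubation, then 1 h at 22 °C and ≥3 h at 4 °C. The 665/620 nm ratio gave IC50 by 4-parameter fit.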

[2] = target: T2, BRD4 bromo domain 2 [BRD4(2)] (Homo sapiens, UniProt O60885); experiment: BRD4(2)/acetylated peptide H4 binding assay (TR-FRET); conditions: inhibition of interaction between His6-tagged BRD4(2) (amino acids 357-445) and acetylated histone H4 peptide
T2 construct: N-terminally His6-tagged BRD4(2) (amino acids 357-445); made in house; host or cells: E. coli
How it was run: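 TR-FRET displacement of biotinylated tetra-acetylated H4 peptide from His6-BRD4(2) (aa 357-445, E. coli-expressed), 100 nM final, in HEPES pH 7.5 buffer; 11 compound concentrations 0.1 nM-20 μM, 10 min preincubation, then 1 h 22 °C plus ≥3 h 4 °C. 665/620 ratio read; IC50 by 4-parameter fit.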

MOLM-13 cell line = experiment: MOLM-13 cell proliferation assay (alamarBlue); format: cell-based; conditions: Homo sapiens, inhibition of proliferation of MOLM-13 cells (acute myeloid leukaemia), 96 hours incubation
Method: In accordance with the invention, the substances were tested for their ability to inhibit the proliferation of the MOLM-13 cell linie (Deutsche Sammlung für Mikroorganismen und Zellkulturen [German Collection of Microorganisms and Cell Cultures], ACC 554; acute myeloid leukaemia). Cell viability was determined by means of the alamarBlue® reagent (Invitrogen) in a Victor X3 Multilabel Reader (Perkin Elmer). The excitation wavelength was 530 nm and the emission wavelength […].
The MOLM-13 cells were sown at a density of 4000 cells/well in 100 μl of growth medium on 96-well microtitre plates. After overnight incubation at 37° C., the fluorescence values were determined (CI values). The plates were then treated with various substance dilutions and incubated at 37° C. for 96 hours. Subsequently, the fluorescence values were determined (CO values). For the data analysis, the CI values were subtracted from the CO values and the results were compared between cells which had been treated with various dilutions of the substance or only with buffer solution. The IC50 values (substance concentration needed for 50% inhibition of cell proliferation) were calculated therefrom.

Row | Compound | IC50 [1] [nM] | IC50 [2] [nM] | IC50 (MOLM-13 cell line) [nM]
1 | COc1cc(Nc2ccc3c(n2)N(C2CCOCC2)[C@H](C)C(=O)N3C)ccc1S(=O)(=O)N1CCN(C)CC1 [Example 26, (3R)-6-({3-methoxy-4-[(4-methylpiperazin-1-yl)sulphonyl]phenyl}amino)-1,3-dimethyl-4-(tetrahydro-2H-pyran-4-yl)-3,4-dihydropyrido[2,3-b]pyrazin-2(1H)-one] | 70 | 67 | 296
2 | C[C@@H]1C(=O)N(C)c2ccc(Nc3ccc(S(=O)(=O)N4CCN(C)CC4)cc3F)nc2N1C1CCOCC1 [Example 21, (3R)-6-({2-fluoro-4-[(4-methylpiperazin-1-yl)sulphonyl]phenyl}amino)-1,3-dimethyl-4-(tetrahydro-2H-pyran-4-yl)-3,4-dihydropyrido[2,3-b]pyrazin-2(1H)-one] | 106 | 87 | 397
3 | C[C@@H]1C(=O)N(C)c2ccc(Nc3ccc(C(=O)NC4CCN(C)CC4)cc3)nc2N1C1CCCC1 [Example 11, 4-{[(3R)-4-Cyclopentyl-1,3-dimethyl-2-oxo-1,2,3,4-tetrahydropyrido[2,3-b]pyrazin-6-yl]amino}-N-(1-methylpiperidin-4-yl)benzamide] | 63 | 83 | 444
4 | COc1cc(C(=O)NC2CCN(C)CC2)ccc1Nc1ccc2c(n1)N(C(C)C)[C@H](C)C(=O)N2C [Example 2, 4-{[(3R)-1,3-Dimethyl-2-oxo-4-(propan-2-yl)-1,2,3,4-tetrahydropyrido[2,3-b]pyrazin-6-yl]amino}-3-methoxy-N-(1-methylpiperidin-4-yl)benzamide] | 501 | 622 | 2360
5 | COc1cc(C(=O)NC2CCN(C)CC2)ccc1Nc1ccc2c(n1)N(C1CCOCC1)[C@H](C)C(=O)N2C [Example 13, 4-{[(3R)-1,3-Dimethyl-2-oxo-4-(tetrahydro-2H-pyran-4-yl)-1,2,3,4-tetrahydropyrido[2,3-b]pyrazin-6-yl]amino}-3-methoxy-N-(1-methylpiperidin-4-yl)benzamide] | 114 | 113 | 212
6 | COc1cc(C(=O)N2CCC(N3CCCCC3)CC2)ccc1Nc1ccc2c(n1)N(C1CCOCC1)[C@H](C)C(=O)N2C [Example 53, (3R)-6-{[4-(1,4′-Bipiperidin-1′-ylcarbonyl)-2-methoxyphenyl]amino}-1,3-dimethyl-4-(tetrahydro-2H-pyran-4-yl)-3,4-dihydropyrido[2,3-b]pyrazin-2(1H)-one] | 90 | 94 | 249
7 | CC(C)N1c2nc(Nc3ccc(C(=O)N4CC5(CCS5(=O)=O)C4)cc3)ccc2N(C)C(=O)[C@H]1C [Example 9, (3R)-6-({4-[(1,1-Dioxido-1-thia-6-azaspiro[3.3]hept-6-yl)carbonyl]phenyl}amino)-4-isopropyl-1,3-dimethyl-3,4-dihydropyrido[2,3-b]pyrazin-2(1H)-one] | 150 | 130 | 698
8 | C[C@@H]1C(=O)N(C)c2ccc(Nc3ccc(S(=O)(=O)NCCN(C)C)cc3)nc2N1C1CCOCC1 [Example 24, N-[2-(dimethylamino)ethyl]-4-{[(3R)-1,3-dimethyl-2-oxo-4-(tetrahydro-2H-pyran-4-yl)-1,2,3,4-tetrahydropyrido[2,3-b]pyrazin-6-yl]amino}benzene-sulphonamide] | 81 | 76 | 554
9 | COc1cc(C(=O)NC2CCC(=O)CC2)ccc1Nc1ccc2c(n1)N(C1CCOCC1)[C@H](C)C(=O)N2C [Example 38, 4-{[(3R)-1,3-Dimethyl-2-oxo-4-(tetrahydro-2H-pyran-4-yl)-1,2,3,4-tetrahydropyrido[2,3-b]pyrazin-6-yl]amino}-3-methoxy-N-(4-oxocyclohexyl)benzamide] | 194 | 79 | 51
10 | C[C@@H]1C(=O)N(C)c2ccc(Nc3ccc(S(=O)(=O)N(C)C)cc3)nc2N1C1CCOCC1 [Example 27, 4-{[(3R)-1,3-dimethyl-2-oxo-4-(tetrahydro-2H-pyran-4-yl)-1,2,3,4-tetrahydropyrido[2,3-b]pyrazin-6-yl]amino}-N,N-dimethylbenzene-sulphonamide] | 32 | 38 | 202

Continued, values first:

Row | IC50 [1] [nM] | IC50 [2] [nM] | IC50 (MOLM-13 cell line) [nM] | Compound
11 | 134 | 105 | 226 | CC(C)N1c2nc(Nc3ccc(S(=O)(=O)N4CCOCC4)cc3)ccc2N(C)C(=O)[C@H]1C [Example 101, (3R)-1,3-Dimethyl-6-{[4-(morpholin-4-ylsulphonyl)phenyl]amino}-4-(propan-2-yl)-3,4-dihydropyrido[2,3-b]pyrazin-2(1H)-one]
12 | 145 | 104 | 316 | CC(C)N1c2nc(Nc3ccc(S(=O)(=O)N4CCN(C)CC4)cc3)ccc2N(C)C(=O)[C@H]1C [Example 99, (3R)-1,3-Dimethyl-6-({4-[(4-methylpiperazin-1-yl)sulphonyl]phenyl}amino)-4-(propan-2-yl)-3,4-dihydropyrido[2,3-b]pyrazin-2(1H)-one]
13 | 111 | 134 | 339 | C[C@@H]1C(=O)N(C)c2ccc(Nc3ccc(C(=O)NC4CCN(C)CC4)cc3)nc2N1C1CCOCC1 [Example 58, 4-{[(3R)-1,3-Dimethyl-2-oxo-4-(tetrahydro-2H-pyran-4-yl)-1,2,3,4-tetrahydropyrido[2,3-b]pyrazin-6-yl]amino}-N-(1-methylpiperidin-4-yl)benzamide]
14 | 164 | 89 | 358 | C[C@@H]1C(=O)N(C)c2ccc(Nc3ccc(C(=O)N4CC5(COC5)C4)cc3)nc2N1C1CCCCC1 [Example 69, (3R)-4-Cyclohexyl-1,3-dimethyl-6-{[4-(2-oxa-6-azaspiro[3.3]hept-6-ylcarbonyl)phenyl]amino}-3,4-dihydropyrido[2,3-b]pyrazin-2(1H)-one]
15 | 140 | 154 | 270 | C[C@@H]1C(=O)N(C)c2ccc(Nc3ccc(C(=O)NCCN4CCN(C)CC4)cc3)nc2N1C1CCCCC1 [Example 66, 4-{[(3R)-4-Cyclohexyl-1,3-dimethyl-2-oxo-1,2,3,4-tetrahydropyrido[2,3-b]pyrazin-6-yl]amino}-N-[2-(4-methylpiperazin-1-yl)ethyl]benzamide]
16 | 131 | 118 | 254 | COc1cc(C(=O)NC2CN(C)C2)ccc1Nc1ccc2c(n1)N(C1CCCCC1)[C@H](C)C(=O)N2C [Example 72, 4-{[(3R)-4-Cyclohexyl-1,3-dimethyl-2-oxo-1,2,3,4-tetrahydropyrido[2,3-b]pyrazin-6-yl]amino}-3-methoxy-N-(1-methylazetidin-3-yl)benzamide]
17 | 239 | 120 | 233 | COc1cc(C(=O)N[C@H]2CC[C@H](N3CCN(CC4CC4)CC3)CC2)ccc1Nc1ccc2c(n1)N(C1CCCCC1)[C@H](C)C(=O)N2C [Example 70, 4-{[(3R)-4-Cyclohexyl-1,3-dimethyl-2-oxo-1,2,3,4-tetrahydropyrido[2,3-b]pyrazin-6-yl]amino}-N-{trans-4-[4-(cyclopropylmethyl)piperazin-1-yl]cyclohexyl}-3-methoxybenzamide]
18 | 178 | 110 | 265 | COc1cc(C(=O)NCCN2CCN(C)CC2)ccc1Nc1ccc2c(n1)N(C1CCCCC1)[C@H](C)C(=O)N2C [Example 67, 4-{[(3R)-4-Cyclohexyl-1,3-dimethyl-2-oxo-1,2,3,4-tetrahydropyrido[2,3-b]pyrazin-6-yl]amino}-3-methoxy-N-[2-(4-methylpiperazin-1-yl)ethyl]benzamide]
19 | 156 | 71 | 336 | CC(C)N1c2nc(Nc3ccc(S(=O)(=O)N(C)C)cc3)ccc2N(C)C(=O)[C@H]1C [Example 100, 4-{[(3R)-1,3-Dimethyl-2-oxo-4-(propan-2-yl)-1,2,3,4-tetrahydropyrido[2,3-b]pyrazin-6-yl]amino}-N,N-dimethylbenzenesulphon-amide]
20 | 153 | 111 | 243 | CC(=O)N1CCC(NC(=O)c2ccc(Nc3ccc4c(n3)N(Cc3ccccc3)[C@H](C)C(=O)N4C)cc2)CC1 [Example 78, N-(1-Acetylpiperidin-4-yl)-4-{[(3R)-4-benzyl-1,3-dimethyl-2-oxo-1,2,3,4-tetrahydropyrido[2,3-b]pyrazin-6-yl]amino}benzamide]
